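These data come from cells grown in 96-well plates and exposed to compound for 48 hours at five concentrations. GI50 marks 50% less growth. TGI: total growth inhibition.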
What was measured:
Assay in all cases: growth of human tumour cells (NCI), 48 h
OVCAR-4 ovarian = test system: OVCAR-4 ovarian
HL-60(TB) leukemia = test system: HL-60(TB) leukemia
CAKI-1 renal = test system: CAKI-1 renal
SW-620 colon = test system: SW-620 colon
MDA-MB-231 breast = test system: MDA-MB-231 breast
HCT-15 colon = test system: HCT-15 colon
NCI/ADR-RES ovarian = test system: NCI/ADR-RES ovarian
SF-539 CNS = test system: SF-539 CNS
SK-MEL-28 melanoma = test system: SK-MEL-28 melanoma
DU-145 prostate = test system: DU-145 prostate
HS 578T breast = test system: HS 578T breast
IGROV1 ovarian = test system: IGROV1 ovarian
HCC-2998 colon = test system: HCC-2998 colon
A549 NSCLC = test system: A549 NSCLC
U251 CNS = test system: U251 CNS
SNB-75 CNS = test system: SNB-75 CNS
UO-31 renal = test system: UO-31 renal
MDA-MB-435 = test system: MDA-MB-435
SF-295 CNS = test system: SF-295 CNS
NCI-H522 lung = test system: NCI-H522 lung
NCI-H460 lung = test system: NCI-H460 lung
RPMI-8226 leukemia = test system: RPMI-8226 leukemia
OVCAR-5 ovarian = test system: OVCAR-5 ovarian
SK-OV-3 ovarian = test system: SK-OV-3 ovarian
EKVX NSCLC = test system: EKVX NSCLC
MCF7 breast = test system: MCF7 breast
T-47D breast = test system: T-47D breast
SK-MEL-2 melanoma = test system: SK-MEL-2 melanoma

O=C1C2=C(C(=O)c3c(O)cccc31)C(c1ccco1)c1sc(=O)[nH]c1S2 (stereo unspecified)
GI50 (OVCAR-4 ovarian): 1.79 µM | TGI (OVCAR-4 ovarian): 3.95 µM | GI50 (HL-60(TB) leukemia): 1.82 µM | TGI (HL-60(TB) leukemia): 6.09 µM | GI50 (CAKI-1 renal): 3.29 µM | TGI (CAKI-1 renal): 13.9 µM | GI50 (SW-620 colon): 3.28 µM | TGI (SW-620 colon): 10.5 µM | GI50 (MDA-MB-231 breast): 2.73 µM | TGI (MDA-MB-231 breast): 9.08 µM | GI50 (HCT-15 colon): 1.75 µM | TGI (HCT-15 colon): 3.88 µM | GI50 (NCI/ADR-RES ovarian): 3.02 µM | TGI (NCI/ADR-RES ovarian): 12.3 µM | GI50 (SF-539 CNS): 1.93 µM | TGI (SF-539 CNS): 3.69 µM | GI50 (SK-MEL-28 melanoma): 1.87 µM | TGI (SK-MEL-28 melanoma): 3.72 µM | GI50 (DU-145 prostate): 1.55 µM | TGI (DU-145 prostate): 3.01 µM | GI50 (HS 578T breast): 2.2 µM | TGI (HS 578T breast): 6.56 µM | GI50 (IGROV1 ovarian): 2.51 µM | TGI (IGROV1 ovarian): 6.14 µM | GI50 (HCC-2998 colon): 2.5 µM | TGI (HCC-2998 colon): 5.51 µM | GI50 (A549 NSCLC): 1.78 µM | TGI (A549 NSCLC): 3.63 µM | GI50 (U251 CNS): 3.07 µM | TGI (U251 CNS): 10.1 µM | GI50 (SNB-75 CNS): 3.17 µM | TGI (SNB-75 CNS): 7.61 µM | GI50 (UO-31 renal): 2.56 µM | TGI (UO-31 renal): 13.5 µM | GI50 (MDA-MB-435): 1.16 µM | TGI (MDA-MB-435): 2.47 µM | GI50 (SF-295 CNS): 1.98 µM | TGI (SF-295 CNS): 3.59 µM | GI50 (NCI-H522 lung): 2.31 µM | TGI (NCI-H522 lung): 6.99 µM | GI50 (NCI-H460 lung): 1.54 µM | TGI (NCI-H460 lung): 3.48 µM | GI50 (RPMI-8226 leukemia): 2.62 µM | TGI (RPMI-8226 leukemia): 9.83 µM | GI50 (OVCAR-5 ovarian): 2.13 µM | TGI (OVCAR-5 ovarian): 4.58 µM | GI50 (SK-OV-3 ovarian): 15.5 µM | TGI (SK-OV-3 ovarian): 29.6 µM | GI50 (EKVX NSCLC): 6.75 µM | TGI (EKVX NSCLC): 19.4 µM | GI50 (MCF7 breast): 1.39 µM | TGI (MCF7 breast): 3.34 µM | GI50 (T-47D breast): 2.87 µM | TGI (T-47D breast): 13 µM | GI50 (SK-MEL-2 melanoma): 3.51 µM | TGI (SK-MEL-2 melanoma): 16.4 µM

From PubChem BioAssay (NCI)
